Reference: ChEMBL document CHEMBL1135834, “First non-ATP competitive glycogen synthase kinase 3 beta (GSK-3beta) inhibitors: thiadiazolidinones (TDZD) as potential drugs for the treatment of Alzheimer's disease” (J Med Chem, 2002)

How the values were obtained:
[1] = biological target: Cyclin-dependent kinase 1/cyclin B (Homo sapiens, UniProt P06493); assay: Inhibition of Cyclin dependent kinase 1-cyclinB; type: protein-complex assay
[2] = Inhibition of catalytic subunit of protein kinase A (PKA) from bovine heart; set-up: species or system Bos taurus
[3] = biological target: Casein kinase II (Homo sapiens) (UniProt P67870+P68400+P19784); assay: Specific activity against Casein kinase II (CK II); type: protein-complex assay; details: Bos taurus
[4] = biological target: Cyclin-dependent kinase 1/cyclin B (Homo sapiens) (UniProt P06493+P14635+Q8WWL7+O95067); assay: Specific activity against Cyclin dependent kinase 1-cyclin B; type: protein-complex assay
Bos taurus = species on record: Bos taurus; assay: Specific activity against Protein kinase A (PKA) from bovine heart

IC50 [1]: > 100 µM
IC50 [2]: > 100 µM
Specific activity (uM Pi/min/mg protein) [3]: 0.4
Specific activity (nM Pi min-1 (mg of protein)-1) [4]: 0.4
Specific activity (nM Pi min-1 (mg of protein)-1) (Bos taurus): 4
Structure (SMILES): Cn1sc(=O)n(Cc2ccccc2)c1=O
